Data: paper PMC7614683, “A small molecule PI3Kα activator for cardioprotection and neuroregeneration” (Nature, 2023)
Like-named read-outs stand apart in the source and are kept apart here.

Legend:
Assay in all cases: SelectScreen Z-LYTE kinase activity assay (SI Table 6)
Type in all cases: biochemical
[1] = target: protein kinases of the Z-LYTE panel (Homo sapiens, UniProt Q04759)
Procedure, shortened: (§1)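 Kinases in the SelectScreen panel (Adapta, LanthaScreen binding, Z-LYTE formats) were tested against compound at 1 μM. Separately, ATM (100 nM, 5 μM GST-p53, 1 mM ATP, 30 min, 30°C) and mTORC1 (50 nM, 15 μM 4E-BP1, 250 μM ATP, 3 h) were run with 200 μM compound. Those products were read on Phos-tag gels.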

[2] = target: protein kinases of the Z-LYTE panel (Homo sapiens, UniProt P49761)
protein kinases of the Z-LYTE panel (Homo sapiens, UniProt P49761), sequence (P49761 whole entry): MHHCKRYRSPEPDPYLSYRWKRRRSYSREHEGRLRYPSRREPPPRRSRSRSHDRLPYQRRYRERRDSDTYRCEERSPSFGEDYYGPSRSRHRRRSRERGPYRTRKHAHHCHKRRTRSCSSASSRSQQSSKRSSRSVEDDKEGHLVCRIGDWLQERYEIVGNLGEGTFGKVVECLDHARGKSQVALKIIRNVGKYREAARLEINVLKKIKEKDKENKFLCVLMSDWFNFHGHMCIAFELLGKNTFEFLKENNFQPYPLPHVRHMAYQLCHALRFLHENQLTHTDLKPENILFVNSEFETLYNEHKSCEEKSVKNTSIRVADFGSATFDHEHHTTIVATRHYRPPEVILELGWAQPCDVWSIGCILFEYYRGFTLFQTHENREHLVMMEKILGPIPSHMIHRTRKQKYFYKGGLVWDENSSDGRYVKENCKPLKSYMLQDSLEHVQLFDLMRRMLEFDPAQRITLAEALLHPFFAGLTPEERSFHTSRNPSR
Procedure, shortened: as §1

[3] = target: protein kinases of the Z-LYTE panel (Homo sapiens, UniProt P06241)
protein kinases of the Z-LYTE panel (Homo sapiens, UniProt P06241), sequence (P06241 whole entry): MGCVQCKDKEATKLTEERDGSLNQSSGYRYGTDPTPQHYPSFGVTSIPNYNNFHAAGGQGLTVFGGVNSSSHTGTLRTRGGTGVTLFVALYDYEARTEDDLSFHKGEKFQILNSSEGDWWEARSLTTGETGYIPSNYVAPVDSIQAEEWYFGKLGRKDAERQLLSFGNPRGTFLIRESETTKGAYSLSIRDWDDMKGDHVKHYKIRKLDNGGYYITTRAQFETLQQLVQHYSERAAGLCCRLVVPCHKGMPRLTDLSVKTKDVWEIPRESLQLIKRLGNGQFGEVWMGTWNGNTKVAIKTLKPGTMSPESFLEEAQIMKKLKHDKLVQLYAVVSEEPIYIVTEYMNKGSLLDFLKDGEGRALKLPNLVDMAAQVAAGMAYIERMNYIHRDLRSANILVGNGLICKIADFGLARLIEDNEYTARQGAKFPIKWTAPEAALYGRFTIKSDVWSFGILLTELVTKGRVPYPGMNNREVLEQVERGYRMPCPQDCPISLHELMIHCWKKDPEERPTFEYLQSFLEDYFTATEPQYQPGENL
Procedure, shortened: as §1

[4] = target: protein kinases of the Z-LYTE panel (Homo sapiens, UniProt P28482)
protein kinases of the Z-LYTE panel (Homo sapiens, UniProt P28482), sequence (P28482 whole entry): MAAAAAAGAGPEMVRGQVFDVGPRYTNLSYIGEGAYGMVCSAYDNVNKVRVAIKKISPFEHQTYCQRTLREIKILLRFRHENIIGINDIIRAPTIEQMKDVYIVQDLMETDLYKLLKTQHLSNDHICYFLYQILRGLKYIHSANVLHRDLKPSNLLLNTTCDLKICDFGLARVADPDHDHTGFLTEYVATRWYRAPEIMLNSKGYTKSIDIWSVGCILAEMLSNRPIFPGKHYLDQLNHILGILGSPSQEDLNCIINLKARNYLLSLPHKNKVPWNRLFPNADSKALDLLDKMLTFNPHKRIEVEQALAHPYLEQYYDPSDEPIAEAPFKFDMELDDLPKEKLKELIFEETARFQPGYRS
Procedure, shortened: as §1

[5] = target: T1, protein kinases of the Z-LYTE panel (Homo sapiens, UniProt P52333)
T1 sequence (P52333 1-1124): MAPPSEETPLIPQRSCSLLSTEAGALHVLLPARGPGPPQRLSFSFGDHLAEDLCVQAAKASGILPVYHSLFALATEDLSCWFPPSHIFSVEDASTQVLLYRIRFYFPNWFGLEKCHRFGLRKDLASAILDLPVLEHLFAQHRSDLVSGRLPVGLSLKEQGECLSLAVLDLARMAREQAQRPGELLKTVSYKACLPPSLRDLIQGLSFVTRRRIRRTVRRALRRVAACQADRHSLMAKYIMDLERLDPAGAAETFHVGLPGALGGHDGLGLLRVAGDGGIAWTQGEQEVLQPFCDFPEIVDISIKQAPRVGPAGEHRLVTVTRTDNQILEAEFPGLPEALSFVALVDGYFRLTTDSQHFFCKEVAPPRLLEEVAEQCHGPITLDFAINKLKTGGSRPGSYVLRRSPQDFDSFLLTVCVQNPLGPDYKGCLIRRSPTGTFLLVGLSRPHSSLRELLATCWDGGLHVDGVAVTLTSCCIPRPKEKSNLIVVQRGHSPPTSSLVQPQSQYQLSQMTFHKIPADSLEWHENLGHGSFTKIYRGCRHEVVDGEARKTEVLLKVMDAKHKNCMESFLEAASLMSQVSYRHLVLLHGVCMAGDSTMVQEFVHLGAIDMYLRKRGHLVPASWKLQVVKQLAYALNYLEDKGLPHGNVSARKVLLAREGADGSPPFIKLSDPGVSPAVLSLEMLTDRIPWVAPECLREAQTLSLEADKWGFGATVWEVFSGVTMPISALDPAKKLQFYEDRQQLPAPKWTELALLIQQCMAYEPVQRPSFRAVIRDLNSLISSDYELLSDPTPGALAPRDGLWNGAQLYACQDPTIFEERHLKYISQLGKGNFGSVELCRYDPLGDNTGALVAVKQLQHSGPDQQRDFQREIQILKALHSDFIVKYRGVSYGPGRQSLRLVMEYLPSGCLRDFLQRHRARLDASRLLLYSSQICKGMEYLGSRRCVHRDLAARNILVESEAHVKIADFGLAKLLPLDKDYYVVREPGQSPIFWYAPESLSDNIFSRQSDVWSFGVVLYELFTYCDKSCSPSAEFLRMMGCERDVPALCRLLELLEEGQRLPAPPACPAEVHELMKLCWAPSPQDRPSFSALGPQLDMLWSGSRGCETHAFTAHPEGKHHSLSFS
Procedure, shortened: as §1

[6] = target: protein kinases of the Z-LYTE panel (Homo sapiens, UniProt P22607)
protein kinases of the Z-LYTE panel (Homo sapiens, UniProt P22607), sequence (P22607 23-806): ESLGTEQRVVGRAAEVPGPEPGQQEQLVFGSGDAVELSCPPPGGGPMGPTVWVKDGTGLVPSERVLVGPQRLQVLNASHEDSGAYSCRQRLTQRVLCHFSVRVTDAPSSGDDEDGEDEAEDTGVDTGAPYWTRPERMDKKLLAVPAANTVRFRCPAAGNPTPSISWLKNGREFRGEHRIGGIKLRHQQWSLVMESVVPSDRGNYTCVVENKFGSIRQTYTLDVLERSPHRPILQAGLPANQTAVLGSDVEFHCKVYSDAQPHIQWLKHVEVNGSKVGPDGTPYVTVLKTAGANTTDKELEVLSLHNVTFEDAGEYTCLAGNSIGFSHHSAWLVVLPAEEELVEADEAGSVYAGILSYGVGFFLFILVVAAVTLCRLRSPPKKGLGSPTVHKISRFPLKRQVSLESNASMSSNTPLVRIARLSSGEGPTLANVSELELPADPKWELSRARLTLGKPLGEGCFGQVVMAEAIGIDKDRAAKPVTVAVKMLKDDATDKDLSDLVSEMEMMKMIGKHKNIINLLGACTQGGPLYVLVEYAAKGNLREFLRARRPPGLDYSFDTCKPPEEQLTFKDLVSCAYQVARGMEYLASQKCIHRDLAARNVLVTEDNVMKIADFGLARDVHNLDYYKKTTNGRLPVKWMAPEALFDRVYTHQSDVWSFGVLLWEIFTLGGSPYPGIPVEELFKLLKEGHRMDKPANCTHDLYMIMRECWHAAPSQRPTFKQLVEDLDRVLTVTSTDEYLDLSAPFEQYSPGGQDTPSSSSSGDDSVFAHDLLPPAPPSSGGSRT
Procedure, shortened: as §1

[7] = target: protein kinases of the Z-LYTE panel (Homo sapiens, UniProt P42684)
Procedure, shortened: as §1

[8] = target: protein kinases of the Z-LYTE panel (Homo sapiens, UniProt O75116)
protein kinases of the Z-LYTE panel (Homo sapiens, UniProt O75116), sequence (O75116 whole entry): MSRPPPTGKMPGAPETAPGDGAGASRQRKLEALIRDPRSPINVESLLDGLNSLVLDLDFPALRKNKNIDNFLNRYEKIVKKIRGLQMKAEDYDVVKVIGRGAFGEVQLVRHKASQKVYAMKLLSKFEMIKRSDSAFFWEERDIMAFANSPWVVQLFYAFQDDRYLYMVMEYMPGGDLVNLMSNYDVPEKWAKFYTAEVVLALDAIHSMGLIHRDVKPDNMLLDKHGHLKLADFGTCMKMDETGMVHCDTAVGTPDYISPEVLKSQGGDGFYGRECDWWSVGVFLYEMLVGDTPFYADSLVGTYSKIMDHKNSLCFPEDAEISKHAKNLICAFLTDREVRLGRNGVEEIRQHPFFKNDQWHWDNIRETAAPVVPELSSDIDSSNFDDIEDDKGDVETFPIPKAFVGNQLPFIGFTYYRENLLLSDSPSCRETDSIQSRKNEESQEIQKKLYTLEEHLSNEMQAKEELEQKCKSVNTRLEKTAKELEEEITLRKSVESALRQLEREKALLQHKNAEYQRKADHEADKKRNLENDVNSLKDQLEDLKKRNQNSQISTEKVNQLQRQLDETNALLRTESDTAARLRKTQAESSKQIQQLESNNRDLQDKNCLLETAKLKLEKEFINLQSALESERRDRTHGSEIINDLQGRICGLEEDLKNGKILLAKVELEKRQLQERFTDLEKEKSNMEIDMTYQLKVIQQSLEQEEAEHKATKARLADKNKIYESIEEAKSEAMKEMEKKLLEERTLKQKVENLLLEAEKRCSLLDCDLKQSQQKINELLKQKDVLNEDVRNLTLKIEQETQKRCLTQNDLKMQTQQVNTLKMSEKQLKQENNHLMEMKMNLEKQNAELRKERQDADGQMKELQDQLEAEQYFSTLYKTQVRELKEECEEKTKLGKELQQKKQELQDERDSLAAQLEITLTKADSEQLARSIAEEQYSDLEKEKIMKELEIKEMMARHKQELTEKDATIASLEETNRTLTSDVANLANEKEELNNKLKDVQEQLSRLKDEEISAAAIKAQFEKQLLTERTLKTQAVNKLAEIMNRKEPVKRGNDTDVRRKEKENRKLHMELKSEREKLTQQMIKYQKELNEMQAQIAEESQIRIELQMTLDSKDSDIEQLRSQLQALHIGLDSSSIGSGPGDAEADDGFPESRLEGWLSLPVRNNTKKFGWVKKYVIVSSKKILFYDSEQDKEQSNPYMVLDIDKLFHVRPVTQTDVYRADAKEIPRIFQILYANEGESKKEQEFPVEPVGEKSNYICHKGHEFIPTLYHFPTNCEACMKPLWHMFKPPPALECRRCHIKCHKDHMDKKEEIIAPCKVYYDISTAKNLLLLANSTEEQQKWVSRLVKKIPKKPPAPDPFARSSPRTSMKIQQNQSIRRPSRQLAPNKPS
Procedure, shortened: as §1

[9] = target: protein kinases of the Z-LYTE panel (Homo sapiens, UniProt P45983); conditions: MAPK8 (JNK1), 1000 nM, [ATP] 100 μM
protein kinases of the Z-LYTE panel (Homo sapiens, UniProt P45983), sequence (P45983 whole entry): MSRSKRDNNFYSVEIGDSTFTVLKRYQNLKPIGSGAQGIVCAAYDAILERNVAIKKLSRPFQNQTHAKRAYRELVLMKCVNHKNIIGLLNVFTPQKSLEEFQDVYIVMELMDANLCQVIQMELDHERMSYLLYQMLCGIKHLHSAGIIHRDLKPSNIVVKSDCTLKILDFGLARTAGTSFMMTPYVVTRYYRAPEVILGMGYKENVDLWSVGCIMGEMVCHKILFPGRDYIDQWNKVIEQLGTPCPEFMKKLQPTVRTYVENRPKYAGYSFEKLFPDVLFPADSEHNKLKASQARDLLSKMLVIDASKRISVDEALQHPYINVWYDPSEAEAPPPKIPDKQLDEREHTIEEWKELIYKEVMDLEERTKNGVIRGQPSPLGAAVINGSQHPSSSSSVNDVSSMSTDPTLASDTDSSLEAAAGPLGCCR
Procedure, shortened: as §1

protein kinases of the Z-LYTE panel (Homo sapiens, UniProt Q04759), sequence (Q04759 whole entry): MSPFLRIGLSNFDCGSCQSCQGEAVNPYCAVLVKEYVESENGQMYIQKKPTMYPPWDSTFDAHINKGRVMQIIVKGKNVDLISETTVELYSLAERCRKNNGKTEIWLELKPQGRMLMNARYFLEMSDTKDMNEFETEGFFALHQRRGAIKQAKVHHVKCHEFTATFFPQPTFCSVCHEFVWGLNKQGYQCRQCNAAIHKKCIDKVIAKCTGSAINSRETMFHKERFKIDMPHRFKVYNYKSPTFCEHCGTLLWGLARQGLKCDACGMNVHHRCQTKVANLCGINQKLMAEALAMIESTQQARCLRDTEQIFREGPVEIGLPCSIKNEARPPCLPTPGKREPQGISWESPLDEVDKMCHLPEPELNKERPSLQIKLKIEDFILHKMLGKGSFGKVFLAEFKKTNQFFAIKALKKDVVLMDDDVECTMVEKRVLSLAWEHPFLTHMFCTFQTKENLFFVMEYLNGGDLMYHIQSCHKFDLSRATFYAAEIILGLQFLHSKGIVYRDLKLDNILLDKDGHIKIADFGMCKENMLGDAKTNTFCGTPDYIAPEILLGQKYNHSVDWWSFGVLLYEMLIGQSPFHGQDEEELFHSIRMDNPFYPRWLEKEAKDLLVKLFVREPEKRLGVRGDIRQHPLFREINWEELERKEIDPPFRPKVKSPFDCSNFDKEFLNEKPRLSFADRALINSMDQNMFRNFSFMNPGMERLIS

`CCN1CCN(c2ccc(Nc3cc(Nc4cccc5c4N(C(C)=O)CC5)ccn3)cc2)CC1` [Compound 1938] showed an inhibition at 1 µM ([1]; read-out: % Inhibition Point 1) of 12%, an inhibition at 1 µM ([1]; read-out: % Inhibition Point 2) of 6.62% and an inhibition at 1 µM ([1]; read-out: % Inhibition mean) of 9%. It also gave an inhibition at 1 µM ([2]; read-out: % Inhibition Point 1) of -1%, an inhibition at 1 µM ([2]; read-out: % Inhibition Point 2) of 0.422% and an inhibition at 1 µM ([2]; read-out: % Inhibition mean) of -0.267%. For the same compound, the inhibition at 1 µM ([3]; read-out: % Inhibition Point 1) was 6%, the inhibition at 1 µM ([3]; read-out: % Inhibition Point 2) was 7% and the inhibition at 1 µM ([3]; read-out: % Inhibition mean) was 6.46%. The inhibition at 1 µM ([4]; read-out: % Inhibition Point 1) was -0.368%, the inhibition at 1 µM ([4]; read-out: % Inhibition Point 2) was 13% and the inhibition at 1 µM ([4]; read-out: % Inhibition mean) was 6.48%. For the same compound, the inhibition at 1 µM ([5]; read-out: % Inhibition Point 1) was 3%, the inhibition at 1 µM ([5]; read-out: % Inhibition Point 2) was 1.12% and the inhibition at 1 µM ([5]; read-out: % Inhibition mean) was 2%. The inhibition at 1 µM ([6]; read-out: % Inhibition Point 1) was 6%, the inhibition at 1 µM ([6]; read-out: % Inhibition Point 2) was 6% and the inhibition at 1 µM ([6]; read-out: % Inhibition mean) was 6%. The inhibition at 1 µM ([7]; read-out: % Inhibition Point 1) was 22%, the inhibition at 1 µM ([7]; read-out: % Inhibition Point 2) was 20% and the inhibition at 1 µM ([7]; read-out: % Inhibition mean) was 21%. The inhibition at 1 µM ([8]; read-out: % Inhibition Point 1) was 1.58%, the inhibition at 1 µM ([8]; read-out: % Inhibition Point 2) was 0.0356% and the inhibition at 1 µM ([8]; read-out: % Inhibition mean) was 0.807%. The inhibition at 1 µM ([9]; read-out: % Inhibition Point 1) was 28%, the inhibition at 1 µM ([9]; read-out: % Inhibition Point 2) was 32% and the inhibition at 1 µM ([9]; read-out: % Inhibition mean) was 30%.
